{"source": "patent US9730890B2", "about": "“Bronchodilating beta-agonist compositions and methods” (Mylan Specialty L.P., priority 2003, dated 2017)", "assay": "Decomposition rate constant (kobs) of formoterol in aqueous solution", "format": "physicochemical", "conditions": "for rate constant (kobs) for decomposition: aqueous solution, 60° C., ionic strength 0.05", "excerpt": "In the embodiments herein, the compositions have a pH of about 2.0 to about 8.0, or 2.0 to 8.0. In other embodiments, the compositions have a pH of about 4.0 to about 6.0, or 4.0 to 6.0. In other embodiments, the pH is about 4.5 to about 5.5, or 4.5 to 5.5. In certain of the above embodiments, the compositions are formulated at a pH of about 4, 4.4 or 4.6 up to about 5.5, 5.7 or 6; or 4, 4.4 or 4.6 up to 5.5, 5.7 or 6. In other embodiments, the pH is about 5.0, or 5.0. […] The rate constant (kobs) at 60° C. at a pH of 3, 4, 5 and 7 is approximately 0.62, 0.11, 0.044 and 0.55 day^-1, respectively.\nIn other of the above embodiments, the compositions further contain a buffer, including, but not limited to, citric acid/phosphate, acetate, barbital, borate, Britton-Robinson, cacodylate, citrate, collidine, formate, maleate, McIlvaine, phFosphate, Prideaux-Ward, succinate, citrate-phosphate-borate (Teorell-Stanhagen), veronal acetate, MES (2-(N-morpholino)ethanesulfonic acid), BIS-TRIS (bis(2-hydroxyethyl)imino-tris-(hydroxymethyl)methane), ADA (N-(2-acetamido)-2-iminodiacetic acid), ACES (N-(carbamoylmethyl)-2-aminoethanesulfonic acid), PIPES (piperazine-N,N′-bis(2-ethanesulfonic acid)), MOPSO (3-(N-morpholino)-2-hydroxypropanesulfonic acid), BISTRIS PROPANE (1,3-bis(tris(hydroxymethyl)methylamino)propane), BES (N,N-bis(2-hydroxyethyl)-2-aminoethanesulfonic acid), MOPS (3-(N-morpholino)propanesulfonic acid), TES (N-tris(hydroxymethyl)methyl-2-aminoethanesulfonic acid), HEPES (N-(2-hydroxyethyl)-piperazine-N′-(2-eth-anesulfonic acid), DIPSO (3-(N,N-bis(2-hydroxyethyl)amino)-2-hydroxypropan-esulfonic acid), MOBS (4-(N-morpholino)-butanesulfonic acid), TAPSO (3-(N-tris(hydroxymethyl)methylamino)-2-hydroxypropanesulfonic acid), TRIZMA® (tris(hydroxymethylaminomethane), HEPPSO(N-(2-hydroxyethyl)piperazine-N′-(2-hydroxypropanesulfonic acid), POPSO (piperazine-N,N′-bis(2-hydroxypropanesulfonic acid)), TEA (triethanolamine), EPPS (N-(2-hydroxyethyl)piperazine-N′-(3-propanesulfon-ic acid), TRICINE (N-tris(hydroxy-methyl)methylglycine), GLY-GLY (glycylglycine), BICINE (N,N-bis(2-hydroxyethyl)glycine), HEPBS (N-(2-hydroxyethyl)piperazine-N′-(4-butanesulfonic acid)), TAPS(N-tris(hydroxymethyl)methyl-3-aminopropanesulfonic acid), AMPD (2-amino-2-methyl-1,3-propanediol), and/or any other buffers known to those of skill in the art. In one embodiment, the buffer is citric acid/phosphate buffer, acetate buffer, citrate buffer or phosphate buffer. In another embodiment, the buffer is a citrate buffer (citric acid/sodium citrate). […] Buffer concentrations for use include from about 0 or 0.01 mM to about 150 mM, or 0 or 0.01 mM to 150 mM. In another embodiment, the buffer concentration is about 1 mM to about 20 mM, or 1 mM to 20 mM. In one embodiment, the buffer concentration is about 5 mM, or 5 mM. In other embodiments, the buffer concentration is about 1 mM to about 50 mM, or 1 mM to 50 mM. […] The particular buffer and buffer concentration of a given composition for long term storage provided herein may be determined empirically using standard stability assays well known to those of skill in the art (see, e.g., the Examples).\nIonic strengths of the compositions provided herein are from about 0 to about 0.4, or 0 to 0.4. […] The particular ionic strength of a given composition for long term storage provided herein may be determined empirically using standard stability assays well known to those of skill in the art (see, e.g., the Examples). […]"}
{"smiles": "COc1ccc(CC(C)NCC(O)c2ccc(O)c(NC=O)c2)cc1", "note": "(racemic) [formoterol, 2-hydroxy-5-((1RS)-1-hydroxy-2-(((1RS)-2-(p-methoxyphenyl)-1-methylethyl)amino)ethyl)formanilide]", "values": [{"measurement": "rate constant (kobs) for decomposition", "setting": "pH 3, buffer concentration 5 mM", "value": "approximately 0.62 day^-1"}, {"measurement": "rate constant (kobs) for decomposition", "setting": "pH 4, buffer concentration 5 mM", "value": "~0.11", "unit": "day⁻¹"}, {"measurement": "rate constant (kobs) for decomposition", "setting": "pH 5, buffer concentration 5 mM", "value": "~0.044", "unit": "day⁻¹"}, {"measurement": "rate constant (kobs) for decomposition", "setting": "pH 7, buffer concentration 5 mM", "value": "~0.55", "unit": "day⁻¹"}, {"measurement": "effect of buffer concentration on rate constant of decomposition", "setting": "pH region of about 4.5 to about 5.5, buffer concentration from 5 mM to 20 mM", "value": "no noticeable differences in rate constant"}]}
